Legend:
NCI-H358 (K-Ras G12C) = test: CellTiter-Glo cell viability assay, NCI-H358; assay type: cell-based, human; settings: Homo sapiens, NCI-H358, 120 h, 5-day treatment; read-out: H358 Cell Viability assay data (K-Ras G12C, IC50)
Summary of the method: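 After direct compound addition, plates were incubated to day 5 and equilibrated at room temperature for about 30 minutes before CellTiter-Glo reading. Values derive from luminescence relative to the DMSO mean, fitted with a four-parameter logistic model.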

KRAS WT = KRAS WT (Homo sapiens (Human), UniProt P01116+P62937); test: Ras-Raf disruption/FRET/MOA assay (BRAF RBD, Cyclophilin A); assay type: biochemical; settings: read-out: KRAS WT FRET data IC50
Summary of the method: (§1)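 His6-K-Ras-GMPPNP (12.5 nM), GST-BRAF RBD (50 nM) and tagless Cyclophilin A (25 μM) were combined in 25 mM HEPES pH 7.3 with 100 mM NaCl, 5 mM MgCl2, 0.1% BSA and 0.002% Tween20, with compound as a 10-point 3-fold series from 30 μM final, then incubated 3 h at 25° C.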

KRAS G12V = KRAS G12V (Homo sapiens (Human), UniProt P01116+P62937, G12V); test: as above; assay type: biochemical; settings: read-out: KRAS G12V FRET IC50
Summary of the method: as §1

KRAS G13C = KRAS G13C (Homo sapiens (Human), UniProt P01116+P62937, G13C); test: as above; assay type: biochemical; settings: read-out: KRAS G13C FRET IC50
Summary of the method: as §1

KRAS G13D = KRAS G13D (Homo sapiens (Human), UniProt P01116+P62937, G13D); test: as above; assay type: biochemical; settings: read-out: KRAS G13D FRET data IC50
Summary of the method: as §1

KRAS G12C = KRAS G12C (Homo sapiens (Human), UniProt P01116+P62937, G12C); test: as above; assay type: biochemical; settings: read-out: KRAS G12C FRET IC50
Summary of the method: as §1

KRAS G12D = KRAS G12D (Homo sapiens (Human), UniProt P01116+P62937, G12D); test: as above; assay type: biochemical; settings: read-out: KRAS G12D FRET IC50
Summary of the method: as §1

KRAS G12S = KRAS G12S (Homo sapiens (Human), UniProt P01116+P62937, G12S); test: as above; assay type: biochemical; settings: read-out: KRAS G12S FRET IC50
Summary of the method: as §1

NRAS G12C = NRAS G12C (Homo sapiens (Human), UniProt P01111+P62937, G12C); test: as above; assay type: biochemical; settings: read-out: NRAS G12C FRET data IC50
Summary of the method: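 Ras-GMPPNP (12.5 nM), BRAF RBD (50 nM) and 25 μM Cyclophilin A were incubated with compound for 3 h at 25° C, then detected 1.5 h with anti-His Eu and anti-GST APC; IC50 values follow from the reduced TR-FRET ratio.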

KRAS G12C, sequence (P01116-2 other isoform, or with tags, fused parts or gaps G12C): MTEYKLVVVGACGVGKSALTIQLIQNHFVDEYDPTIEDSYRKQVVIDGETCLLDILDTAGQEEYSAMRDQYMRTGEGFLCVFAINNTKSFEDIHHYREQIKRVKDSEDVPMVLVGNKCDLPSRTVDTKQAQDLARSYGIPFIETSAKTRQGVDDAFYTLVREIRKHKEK
KRAS G12C, sequence (P62937 whole entry): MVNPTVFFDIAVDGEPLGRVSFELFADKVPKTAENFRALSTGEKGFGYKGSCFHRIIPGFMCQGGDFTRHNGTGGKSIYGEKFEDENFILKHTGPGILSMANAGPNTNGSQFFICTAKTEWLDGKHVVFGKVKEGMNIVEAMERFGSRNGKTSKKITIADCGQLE
KRAS G12D, sequence (P01116 other isoform, or with tags, fused parts or gaps G12D): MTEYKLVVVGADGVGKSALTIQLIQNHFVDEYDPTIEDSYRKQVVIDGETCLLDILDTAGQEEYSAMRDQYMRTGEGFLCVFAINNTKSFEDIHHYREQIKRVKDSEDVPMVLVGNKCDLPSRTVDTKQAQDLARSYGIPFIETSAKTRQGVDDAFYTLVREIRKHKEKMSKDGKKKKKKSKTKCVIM
KRAS G12D, sequence (P62937 whole entry): as the sequence (P62937 whole entry) above
KRAS G13C, sequence (P01116 other isoform, or with tags, fused parts or gaps G13C): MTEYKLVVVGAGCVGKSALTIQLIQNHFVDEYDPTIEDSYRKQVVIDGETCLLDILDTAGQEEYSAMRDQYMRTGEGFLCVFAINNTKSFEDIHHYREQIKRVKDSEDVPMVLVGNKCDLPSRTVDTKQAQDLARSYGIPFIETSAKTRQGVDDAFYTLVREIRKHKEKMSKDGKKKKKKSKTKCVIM
KRAS G13C, sequence (P62937 whole entry): as the sequence (P62937 whole entry) above
KRAS G12V, sequence (P01116 other isoform, or with tags, fused parts or gaps G12V): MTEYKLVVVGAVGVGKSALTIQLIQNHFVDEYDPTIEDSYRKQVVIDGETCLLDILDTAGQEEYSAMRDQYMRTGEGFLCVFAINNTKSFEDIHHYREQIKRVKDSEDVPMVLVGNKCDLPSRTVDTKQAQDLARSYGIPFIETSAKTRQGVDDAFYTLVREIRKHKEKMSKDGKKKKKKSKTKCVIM
KRAS G12V, sequence (P62937 whole entry): as the sequence (P62937 whole entry) above
KRAS WT, sequence (P01116 other isoform, or with tags, fused parts or gaps): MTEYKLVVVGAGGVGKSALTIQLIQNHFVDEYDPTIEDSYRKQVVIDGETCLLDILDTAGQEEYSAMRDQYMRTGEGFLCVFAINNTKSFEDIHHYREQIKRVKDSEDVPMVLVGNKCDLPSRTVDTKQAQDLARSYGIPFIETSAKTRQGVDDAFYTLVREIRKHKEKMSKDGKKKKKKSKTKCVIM
KRAS WT, sequence (P62937 whole entry): as the sequence (P62937 whole entry) above
KRAS G12S, sequence (P01116 other isoform, or with tags, fused parts or gaps G12S): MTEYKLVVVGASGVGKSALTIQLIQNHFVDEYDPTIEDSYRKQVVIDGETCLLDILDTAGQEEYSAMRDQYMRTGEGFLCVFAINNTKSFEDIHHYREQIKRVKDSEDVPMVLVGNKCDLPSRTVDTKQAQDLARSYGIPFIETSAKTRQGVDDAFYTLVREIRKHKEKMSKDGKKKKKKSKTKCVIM
KRAS G12S, sequence (P62937 whole entry): as the sequence (P62937 whole entry) above
NRAS G12C, sequence (P01111 whole entry G12C): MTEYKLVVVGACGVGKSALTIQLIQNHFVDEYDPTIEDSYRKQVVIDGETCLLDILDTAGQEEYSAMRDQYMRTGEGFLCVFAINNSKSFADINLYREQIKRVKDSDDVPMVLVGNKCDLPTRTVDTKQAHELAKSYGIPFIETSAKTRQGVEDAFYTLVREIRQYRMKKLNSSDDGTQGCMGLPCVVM
NRAS G12C, sequence (P62937 whole entry): as the sequence (P62937 whole entry) above
KRAS G13D, sequence (P01116 other isoform, or with tags, fused parts or gaps G13D): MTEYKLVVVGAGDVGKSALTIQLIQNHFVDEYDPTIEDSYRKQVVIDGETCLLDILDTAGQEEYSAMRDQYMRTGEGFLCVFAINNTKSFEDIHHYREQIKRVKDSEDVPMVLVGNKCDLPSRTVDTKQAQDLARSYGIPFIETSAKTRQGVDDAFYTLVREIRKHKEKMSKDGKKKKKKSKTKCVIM
KRAS G13D, sequence (P62937 whole entry): as the sequence (P62937 whole entry) above

Compound	IC50 (NCI-H358 (K-Ras G12C)) [nM]	IC50 (KRAS WT) [nM]	IC50 (KRAS G12V) [nM]	IC50 (KRAS G13C) [nM]	IC50 (KRAS G13D) [nM]	IC50 (KRAS G12C) [nM]	IC50 (KRAS G12D) [nM]	IC50 (KRAS G12S) [nM]	IC50 (NRAS G12C) [nM]
CCn1c(-c2cccnc2[C@H](C)OC)c2c3cc(ccc31)-c1csc(n1)C[C@H](NC(=O)[C@H](C(C)C)N(C)C(=O)N1C[C@@H]3OCCN(C)[C@@H]3C1)C(=O)N1CCC[C@H](N1)C(=O)OCC(C)(C)C2 [Compound A444]	< 10	100 to 1000	100 to 1000	100 to 1000	100 to 1000	10 to 100	100 to 1000	100 to 1000	10 to 100
CCn1c(-c2cccnc2[C@H](C)OC)c2c3cc(ccc31)-c1csc(n1)C[C@H](NC(=O)[C@H](C(C)C)N(C)C(=O)N1C[C@H]3CN(C)CC[C@H]31)C(=O)N1CCC[C@H](N1)C(=O)OCC(C)(C)C2 [Compound A462]	< 10	1000 to 10000	1000 to 10000	100 to 1000	1000 to 10000	100 to 1000	1000 to 10000	1000 to 10000	100 to 1000
CCn1c(-c2cccnc2[C@H](C)OC)c2c3cc(ccc31)-c1csc(n1)C[C@H](NC(=O)[C@H](C(C)C)N(C)C(=O)N1CC[C@H]1CN)C(=O)N1CCC[C@H](N1)C(=O)OCC(C)(C)C2 [Compound A463]	< 10	100 to 1000	100 to 1000	100 to 1000	100 to 1000	100 to 1000	100 to 1000	100 to 1000	100 to 1000
CCn1c(-c2cc(N3CCN(C)CC3)cnc2[C@H](C)OC)c2c3cc(ccc31)-c1csc(n1)C[C@H](NC(=O)[C@H](C(C)C)N(C)C(=O)N1CC(OC)C1)C(=O)N1CCC[C@H](N1)C(=O)OCC(C)(C)C2 [Compound A466]	< 10	100 to 1000	100 to 1000	100 to 1000	100 to 1000	10 to 100	100 to 1000	100 to 1000	10 to 100
CCn1c(-c2cccnc2[C@H](C)OC)c2c3cc(ccc31)-c1csc(n1)C[C@H](NC(=O)[C@H](C(C)C)N(C)C(=O)N1CC[C@]3(CCNC3=O)C1)C(=O)N1CCC[C@H](N1)C(=O)OCC(C)(C)C2 [Compound A479]	< 10	1000 to 10000	1000 to 10000	1000 to 10000	1000 to 10000	100 to 1000	1000 to 10000	1000 to 10000	100 to 1000
CCn1c(-c2cccnc2[C@H](C)OC)c2c3cc(ccc31)-c1csc(n1)C[C@H](NC(=O)[C@H](C(C)C)N(C)C(=O)N1CCC[C@H](N(C)C)CC1)C(=O)N1CCC[C@H](N1)C(=O)OCC(C)(C)C2 [Compound A493]	< 10	10 to 100	100 to 1000	100 to 1000	100 to 1000	10 to 100	100 to 1000	100 to 1000	10 to 100
CCn1c(-c2cccnc2[C@H](C)OC)c2c3cc(ccc31)-c1csc(n1)C[C@H](NC(=O)[C@H](C(C)C)N(C)C(=O)N(C)C1(C)COC1)C(=O)N1CCC[C@H](N1)C(=O)OCC(C)(C)C2 [Compound A527]	< 10	100 to 1000	1000 to 10000	1000 to 10000	1000 to 10000	100 to 1000	1000 to 10000	100 to 1000	100 to 1000
CCn1c(-c2cccnc2[C@H](C)OC)c2c3cc(ccc31)-c1csc(n1)C[C@H](NC(=O)[C@H](C(C)C)N(C)C(=O)N1CCC13CCS(=O)(=O)CC3)C(=O)N1CCC[C@H](N1)C(=O)OCC(C)(C)C2 [Compound A530]	10 to 100	100 to 1000	100 to 1000	100 to 1000	1000 to 10000	100 to 1000	1000 to 10000	100 to 1000	100 to 1000
CCn1c(-c2cccnc2[C@H](C)OC)c2c3cc(ccc31)-c1csc(n1)C[C@H](NC(=O)[C@H](C(C)C)N(C)C(=O)N1CC([C@H](C)COC)C1)C(=O)N1CCC[C@H](N1)C(=O)OCC(C)(C)C2 [Compound A533]	< 10	100 to 1000	100 to 1000	100 to 1000	100 to 1000	10 to 100	100 to 1000	100 to 1000	10 to 100

— patent publication US20250195521A1 (Revolution Medicines, Inc., priority 2020, published 2025)
